Laboratory results from PubChem BioAssay (NCI).
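Values below derive from 48-hour exposures of cells grown in 96-well plates, with endpoints linearly interpolated between the two concentrations bracketing the appropriate inhibition level. TGI is the concentration that stops growth completely.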

Legend:
Assay in all cases: NCI tumour cell line growth inhibition, 48 h
T-47D breast = tested on: T-47D breast
DU-145 prostate = tested on: DU-145 prostate
U251 CNS = tested on: U251 CNS
HCT-15 colon = tested on: HCT-15 colon
RXF 393 renal = tested on: RXF 393 renal
UACC-62 melanoma = tested on: UACC-62 melanoma
CAKI-1 renal = tested on: CAKI-1 renal
A498 renal = tested on: A498 renal
NCI-H460 lung = tested on: NCI-H460 lung
BT-549 breast = tested on: BT-549 breast
K-562 leukemia = tested on: K-562 leukemia
A549 NSCLC = tested on: A549 NSCLC
HT29 colon = tested on: HT29 colon
SK-MEL-5 melanoma = tested on: SK-MEL-5 melanoma
786-0 renal = tested on: 786-0 renal
SF-295 CNS = tested on: SF-295 CNS
M14 melanoma = tested on: M14 melanoma
SNB-75 CNS = tested on: SNB-75 CNS
COLO 205 colon = tested on: COLO 205 colon
MDA-N = tested on: MDA-N
SF-268 CNS = tested on: SF-268 CNS
MALME-3M melanoma = tested on: MALME-3M melanoma
HS 578T breast = tested on: HS 578T breast
MCF7 breast = tested on: MCF7 breast
TK-10 renal = tested on: TK-10 renal
MDA-MB-231 breast = tested on: MDA-MB-231 breast
IGROV1 ovarian = tested on: IGROV1 ovarian
UO-31 renal = tested on: UO-31 renal
OVCAR-5 ovarian = tested on: OVCAR-5 ovarian
SN12C renal = tested on: SN12C renal
SK-OV-3 ovarian = tested on: SK-OV-3 ovarian
SW-620 colon = tested on: SW-620 colon
SF-539 CNS = tested on: SF-539 CNS
SK-MEL-28 melanoma = tested on: SK-MEL-28 melanoma
ACHN renal = tested on: ACHN renal
PC-3 prostate = tested on: PC-3 prostate
NCI-H522 lung = tested on: NCI-H522 lung
CCRF-CEM leukemia = tested on: CCRF-CEM leukemia
OVCAR-4 ovarian = tested on: OVCAR-4 ovarian
UACC-257 melanoma = tested on: UACC-257 melanoma
HCT-116 colon = tested on: HCT-116 colon
HOP-92 NSCLC = tested on: HOP-92 NSCLC
EKVX NSCLC = tested on: EKVX NSCLC
NCI-H226 lung = tested on: NCI-H226 lung
SNB-19 CNS = tested on: SNB-19 CNS
RPMI-8226 leukemia = tested on: RPMI-8226 leukemia
MOLT-4 leukemia = tested on: MOLT-4 leukemia
HL-60(TB) leukemia = tested on: HL-60(TB) leukemia
SR leukemia = tested on: SR leukemia
KM12 colon = tested on: KM12 colon
SK-MEL-2 melanoma = tested on: SK-MEL-2 melanoma
NCI-H23 lung = tested on: NCI-H23 lung
MDA-MB-435 = tested on: MDA-MB-435
HOP-62 NSCLC = tested on: HOP-62 NSCLC
OVCAR-3 ovarian = tested on: OVCAR-3 ovarian
NCI/ADR-RES ovarian = tested on: NCI/ADR-RES ovarian
OVCAR-8 ovarian = tested on: OVCAR-8 ovarian
LOX IMVI melanoma = tested on: LOX IMVI melanoma
HCC-2998 colon = tested on: HCC-2998 colon

Measured: TGI

N#Cc1cnc(-n2[nH]c3c(c2=O)CCCC3)[nH]c1=O
> 100 µM: T-47D breast | DU-145 prostate | U251 CNS | HCT-15 colon | RXF 393 renal | UACC-62 melanoma | CAKI-1 renal | A498 renal | NCI-H460 lung | BT-549 breast | K-562 leukemia | A549 NSCLC | HT29 colon | SK-MEL-5 melanoma | 786-0 renal | SF-295 CNS | M14 melanoma | COLO 205 colon | MDA-N | SF-268 CNS | MALME-3M melanoma | HS 578T breast | MCF7 breast | TK-10 renal | MDA-MB-231 breast | IGROV1 ovarian | UO-31 renal | OVCAR-5 ovarian | SN12C renal | SK-OV-3 ovarian | SW-620 colon | SF-539 CNS | SK-MEL-28 melanoma | ACHN renal | PC-3 prostate | NCI-H522 lung | CCRF-CEM leukemia | OVCAR-4 ovarian | UACC-257 melanoma | HCT-116 colon | HOP-92 NSCLC | EKVX NSCLC | NCI-H226 lung | SNB-19 CNS | RPMI-8226 leukemia | MOLT-4 leukemia | HL-60(TB) leukemia | SR leukemia | KM12 colon | SK-MEL-2 melanoma | NCI-H23 lung | MDA-MB-435
55.9 µM: SNB-75 CNS

CC(=O)N(C)c1ccc(N=CN(C)C)cc1
> 100 µM: T-47D breast | DU-145 prostate | U251 CNS | HCT-15 colon | RXF 393 renal | UACC-62 melanoma | CAKI-1 renal | A498 renal | BT-549 breast | HOP-62 NSCLC | OVCAR-3 ovarian | NCI/ADR-RES ovarian | K-562 leukemia | A549 NSCLC | HT29 colon | SK-MEL-5 melanoma | 786-0 renal | SF-295 CNS | M14 melanoma | SNB-75 CNS | COLO 205 colon | MDA-N | SF-268 CNS | MALME-3M melanoma | MCF7 breast | TK-10 renal | MDA-MB-231 breast | IGROV1 ovarian | UO-31 renal | OVCAR-5 ovarian | SN12C renal | SK-OV-3 ovarian | SF-539 CNS | SK-MEL-28 melanoma | ACHN renal | PC-3 prostate | NCI-H522 lung | CCRF-CEM leukemia | OVCAR-8 ovarian | OVCAR-4 ovarian | UACC-257 melanoma | HCT-116 colon | HOP-92 NSCLC | EKVX NSCLC | NCI-H226 lung | SNB-19 CNS | RPMI-8226 leukemia | MOLT-4 leukemia | LOX IMVI melanoma | HL-60(TB) leukemia | SR leukemia | SK-MEL-2 melanoma | NCI-H23 lung | MDA-MB-435

O=c1[nH]nc(Cc2ccc(Cl)cc2)n1/N=C/c1ccco1
91.7 µM: RXF 393 renal
> 100 µM: T-47D breast | DU-145 prostate | U251 CNS | HCT-15 colon | UACC-62 melanoma | CAKI-1 renal | A498 renal | NCI-H460 lung | BT-549 breast | HOP-62 NSCLC | OVCAR-3 ovarian | NCI/ADR-RES ovarian | K-562 leukemia | A549 NSCLC | HT29 colon | 786-0 renal | SF-295 CNS | M14 melanoma | COLO 205 colon | MDA-N | SF-268 CNS | MALME-3M melanoma | MCF7 breast | MDA-MB-231 breast | UO-31 renal | OVCAR-5 ovarian | HCC-2998 colon | SN12C renal | SK-OV-3 ovarian | SW-620 colon | SK-MEL-28 melanoma | ACHN renal | PC-3 prostate | NCI-H522 lung | CCRF-CEM leukemia | OVCAR-8 ovarian | OVCAR-4 ovarian | UACC-257 melanoma | HCT-116 colon | HOP-92 NSCLC | EKVX NSCLC | NCI-H226 lung | RPMI-8226 leukemia | MOLT-4 leukemia | HL-60(TB) leukemia | SR leukemia | KM12 colon | SK-MEL-2 melanoma | NCI-H23 lung | MDA-MB-435
49.7 µM: SNB-75 CNS
90.5 µM: SF-539 CNS
78.4 µM: SNB-19 CNS

CCc1c(CN)c(CC)c(CNC2=NCCN2)c(CC)c1CNC1=NCCN1
> 100 µM: T-47D breast | DU-145 prostate | U251 CNS | HCT-15 colon | RXF 393 renal | UACC-62 melanoma | CAKI-1 renal | A498 renal | NCI-H460 lung | BT-549 breast | HOP-62 NSCLC | OVCAR-3 ovarian | NCI/ADR-RES ovarian | K-562 leukemia | A549 NSCLC | HT29 colon | SK-MEL-5 melanoma | 786-0 renal | SF-295 CNS | M14 melanoma | SNB-75 CNS | COLO 205 colon | MDA-N | SF-268 CNS | MALME-3M melanoma | HS 578T breast | MCF7 breast | TK-10 renal | IGROV1 ovarian | UO-31 renal | OVCAR-5 ovarian | HCC-2998 colon | SN12C renal | SK-OV-3 ovarian | SW-620 colon | SF-539 CNS | SK-MEL-28 melanoma | ACHN renal | PC-3 prostate | NCI-H522 lung | CCRF-CEM leukemia | OVCAR-8 ovarian | OVCAR-4 ovarian | UACC-257 melanoma | HCT-116 colon | HOP-92 NSCLC | EKVX NSCLC | NCI-H226 lung | SNB-19 CNS | RPMI-8226 leukemia | MOLT-4 leukemia | SR leukemia | KM12 colon | SK-MEL-2 melanoma | NCI-H23 lung | MDA-MB-435
